The record followed here is patent EP0097468A2, “Thio-naphthotriazoles, methods for producing them and their use in treating allergic diseases” (BEECHAM GROUP PLC, priority 1982, dated 1984).

The test system of this assay is rat PCA. In words: Passive cutaneous anaphylaxis (PCA) in rats. It is filed as in vivo. As to conditions: iv, PBS with NaHCO3, time 0 mins before antigen challenge. How it is done: Serum containing heat labile homocytotropic antibody was raised in rats to crystallised ovalbumin (Grade 3 Sigma) by the Method of I.Mota (Immunology 7, 681 (1964)) using Bordetella pertussis vaccine ([…] Burroughs Welcome) as adjuvant.
Passive cutaneous anaphylaxis (PCA) was carried out by a method based on that of Ovary and Bier, (Proc. Soc. Exp. Bio. Med., 81, 584 (1952)) as modified by Goose and Blair (Immunology, 16, 749 (1969)) Male Sprague Dawley rats 230-340 gm were given 0.1 ml of each of six two fold serial dilutions of pooled antiserum in 0.9% saline (Polyfusor Boots) injected intradermally into separate sites on their shaved backs. 72 hours later the rats were challenged by intravenous injection of 0.3 ml of a 1% solution of ovalbumin in isotonic saline buffered with 0.05M, pH 7.2 Sorenson'Buffer (Bactohaemagglutination buffer Difco Laboratories), mixed with 0,2 ml of a 5% solution of Pontamine Sky Blue (6 BX C.l. 24410 Raymond A Lamb) in isotonic saline. The rats were killed after 20 minutes and the diameter of the blue wheals at the antibody injection sites was measured on the outer surface of the skin. The starting dilution of the serum was adjusted so that there was no response, after challenge, at the injection site of the highest dilution and a maximum response at the lowest dilutions. Typically, six twofold serial dilutions of the serum from 1/4 to 1/128 were used.
Compounds were tested for their ability to reduce the diameter of the wheals at those intradermal sites which in control animals gave less than maximum response. Each dose of the compounds was administered to six rats at a measured time prior to intravenous challenge with ovalbumin. Control groups of six rats were given the same volume (0.2 ml: 100g-^1) of carrier fluid at the same time prior to the challenge.
The results were calculated as follows: % inhibition of PCA = 100 (1 - a/b) where a = the sum of the diameters of the wheals produced in the test animal at the sites of antibody dilutions as used in control groups and b = the mean sum of the diameters of the wheals produced in the control group of animals at those antibody sites where at least five out of six of the animals gave less than maximum response. A typical variation in the control group of animals was SEM± 6%.

Usually inhibition in vivo stands for how much of the control response was suppressed. `CSc1cccc2c1C(=O)c1nn[nH]c1C2=O` [Example 1, 4,9-Dihydro-4,9-dioxo-5-methylthio-lH-naphtho [2,-3-d]-v-triazole] yielded an inhibition in vivo at 0.25 mg/kg of 23%, an inhibition in vivo at 0.5 mg/kg of 35% and an inhibition in vivo at 1 mg/kg of 68%.

As to `CCSc1cccc2c1C(=O)c1nn[nH]c1C2=O` [Example 2, 4,9-Dihydro-4,9-dioxo-5-ethylthio-1H-naphtho[2,3-d]-v-triazole], testing at 0.125 mg/kg gave an inhibition in vivo of 31%, testing at 0.25 mg/kg gave an inhibition in vivo of 27% and the inhibition in vivo at 0.5 mg/kg is 40%.

Consider `C[S+]([O-])c1cccc2c1C(=O)c1nn[nH]c1C2=O` (stereo not shown) [Example 3, 4,9-Dihydro-4,9-dioxo-5-methylsulphinyl-lH-naphtho-[2,3-d]-v-triazole], for which testing at 0.125 mg/kg gave an inhibition in vivo of 56%, the inhibition in vivo at 0.25 mg/kg came out at 79% and the inhibition in vivo at 0.5 mg/kg amounted to 84%. This molecule displayed an inhibition in vivo at 0.0625 mg/kg (0.0625 mg/kg) of 35%.

`CS(=O)(=O)c1cccc2c1C(=O)c1nn[nH]c1C2=O` [Example 4, 4,9-Dihydro-4,9-dioxo-5-methylsulphonyl-lH-naphtho-[2,3-d]-v-triazole] gave an inhibition in vivo at 1 mg/kg of 44% and an inhibition in vivo at 10 mg/kg of 88%.

Turning to `CC[S+]([O-])c1cccc2c1C(=O)c1nn[nH]c1C2=O` (stereo not shown) [Example 5, 4,9-dihydro-4,9-dioxo-5-ethysulphinyl-1H-naphtho[2,3-d]-v-triazole], the inhibition in vivo at 0.1 mg/kg was 65% and the inhibition in vivo at 0.5 mg/kg amounted to 39%.

In turn, `CCS(=O)(=O)c1cccc2c1C(=O)c1nn[nH]c1C2=O` [Example 6, 4,9-Dihydro-4,9-dioxo-5-ethylsulphonyl-lH-naphtho[2,3-dl-v-triazole] displayed an inhibition in vivo at 1 mg/kg of 39% and an inhibition in vivo at 10 mg/kg of 82%.

As for `CCCSc1cccc2c1C(=O)c1nn[nH]c1C2=O` [Example 7, 4,9-Dihyciro-4,9-dioxo-5-propylthio-1H-naphtho[2,3-d]-y-triazole], the inhibition in vivo at 0.5 mg/kg is 68% and the inhibition in vivo at 5 mg/kg was found to be 88%.

The molecule `CCC[S+]([O-])c1cccc2c1C(=O)c1nn[nH]c1C2=O` (stereo not shown) [Example 8, 4,9-Dihydro-4,9-dioxo-5-propylsulphinyl-1H-naphtho[2,3-d] -v-triazole] displayed an inhibition in vivo at 0.1 mg/kg of 74% and an inhibition in vivo at 0.5 mg/kg of 88%.

Take `CCCS(=O)(=O)c1cccc2c1C(=O)c1nn[nH]c1C2=O` [Example 9, 4,9-Dihydro-4,9-dioxo-5-propylsulphonyl-1H-naphtho[2,3-d] -v-triazole]: the inhibition in vivo at 1 mg/kg is 51% and the inhibition in vivo at 10 mg/kg stood at 87%.

`CSc1c(C)c(C)cc2c1C(=O)c1nn[nH]c1C2=O` [Example 10, 6,7-Dimethyl-4,9-dihydro-4,9-dioxo-5-methylthio-1H-naphtho[2,3-d]-v-triazole] had an inhibition in vivo at 0.5 mg/kg of 71% and an inhibition in vivo at 5 mg/kg of 94%.

The molecule `Cc1cc2c(c([S+](C)[O-])c1C)C(=O)c1nn[nH]c1C2=O` (stereo not shown) [Example 11, 6,7-Dimethyl-4,9-dihydro-4,9-dioxo-5-methylsulphinyl-1H-naphtho [2,3-d]-v-triazole] showed an inhibition in vivo at 0.1 mg/kg of 50% and an inhibition in vivo at 0.5 mg/kg of 88%.

Turning to `Cc1cc2c(c(S(C)(=O)=O)c1C)C(=O)c1nn[nH]c1C2=O` [Example 12, 6,7-Dimethyl-4,9-dihydro-4,9-dioxo-5-methylsulphonyl-1H-na^phtho [2,3-d]-v-triazole], the inhibition in vivo at 1 mg/kg amounted to 92% and the inhibition in vivo at 10 mg/kg turned out to be 92%.
